The values that follow come from patent US20030064380A1, “Anergy-regulated molecules” (The Center For Blood Research, Inc., priority 2001, published 2003).

Residues, ends and D or L forms follow the SMILES beside them. *: point of attachment. Cbz = O=C(OCc1ccccc1)*; CH2F = FC*

This experiment concerns primary Th1 cells. The experiment is described as follows: protease inhibitors assay: recovery of antigen responses of anergised primary Th1 cells (ELISA or RNase protection). The format is cell-based, mice. As to conditions: single inhibitor, two experiments. The protocol:
Th1 cells were anergised by pretreatment with 1 μg/ml plate-bound antiCD3ε in the presence of 100 μM Z-VAD.fink (Clabiochem), 5 μM NLVS (Calbiochem) and/or 10 μM lactacystein (Calbiochem) for 16 hours. After that, cells were washed three times and left resting for 48-72 hours.
Whether anergy could be prevented by including caspase and proteasome inhibitors in the first step of pretreatment with ionomycin or anti-CD3 was tested to evaluate the functional importance of proteolytic pathways in anergy induction. […] The variability likely reflects the fact that the proteasome inhibitors are toxic, and needed to be washed away hours to days before the assay stimuli (antigen/APC or anti-CD3/anti-CD28) were applied. […] Similar results were obtained with the D5 T cell clone. Thus directed proteolysis of signaling proteins may be one of several mechanisms that cooperate to maintain lymphocyte anergy.

As to `CC(C)CC(C=CS(C)(=O)=O)NC(=O)C(CC(C)C)NC(=O)C(CC(C)C)NC(=O)Cc1cc(I)c(O)c([N+](=O)[O-])c1` (centres unmarked) [NLVS], the “recovery of IL-2 production” value is reported as 112%.
As for `COC(=O)C[C@H](NC(=O)[C@H](C)NC(=O)[C@@H](NC(=O)OCc1ccccc1)C(C)C)C(=O)CF` [ZVAD] (Cbz-Val-Ala-Asp(OMe)-CH2F), the figure is 90%.
